{
  "source": "patent US20250223560A1",
  "about": "“NOX4 INHIBITOR COMPOSITIONS AND METHODS FOR REGENERATION OF DYSTROPHIC MUSCLE” (FULCRUM THERAPEUTICS, INC., priority 2022, published 2025)",
  "key": {"myoblast-FAP co-cultures": {"tested_on": "myoblast-FAP co-cultures", "details": "0.1 uM, 3 days of differentiation, vs DMSO", "source_text": "The impact of NOX4 inhibition on myogenic differentiation in myoblast-FAP co-cultures was investigated using primary myoblasts isolated from wild-type, uninjured mouse muscles and FAPs isolated from cardiotoxin-injured muscles of ROSA26-tdTomato mice (such mice contain cells that constitutively express the tdTomato fluorescent marker). […] Following 3 days of differentiation, cells were fixed in 4% paraformaldehyde (PFA) and stained for myosin heavy chain (MHC; marker of myogenic differentiation)."}, "[1]": {"tested_on": "Bone Marrow Derived Mesenchymal Stem Cells, human (BM-MSC); myofibroblast content", "test": "Myofibroblast reduction phenotype in TGF-beta-1 fibrogenic differentiation culture (high-content imaging)", "format": "cell-based", "protocol": "(§1) Bone Marrow Derived Mesenchymal Stem Cells, human (BM-MSC, ATCC PCS-500-012) were cultured in medium composed of Mesenchymal Stem Cell Basal Medium foe Adipose, Umbilcal and Bone Marrow-derived MSCs (ATCC PCS-400030 and Mesenchymal Stem Cell Growth for Bone Marrow-derived MSCs (ATCC PCS-500-041). Cells were seeded at a density of 15,000 cells/well in a 96-well format.\n(§2) To induce fibrogenic differentiation BM-MSCs were cultured in a medium composed by Dulbecco's Modified Eagle Medium, 2% horse serum (HS) (Sigma H1270) and 5-10 ng/ml TGF-beta-1 (PreproTech 100-21). Cells were cultured in basal media for 2 days before being switched to fibrogenic differentiation media for 5 days, after which they were taken down for downstream assays. Compound treatment was added when media was switched to fibrogenic differentiation media, cells were treated with 0.1% DMSO if not receiving compound.\n(§3) Cells were fixed in 4% PFA for 10 min at RT. Fixed cells were washed three times in 1×PBS and incubated in permeabilization solution (0.5% Triton X-100 in 1×PBS) for 10 min. Unspecific binding were saturated by incubating samples in blocking solution (5% donkey serum in 1×PBS) for 1 h. The cells were incubated at RT for 1 hour with gentle shaking in the presence of primary antibody against, alpha-smooth muscle actin (1:1000, Sigma™ A5228). The cells were washed three times with 0.05% Tween-20 in 1×PBS and incubated, for 1 hour at RT, with host-specific secondary antibodies in addition to counterstaining for Alexa Fluor Plus 750 Phalloidin (1:2000, Invitrogen™, A30105) and DAPI (1:2000). Primary and secondary antibodies were diluted according to the manufacturer's recommendations in blocking solution+0.1% Triton X-100. Finally, the cells were washed three times with 0.05% Tween-20 in 1×PBS, washed twice with 1×PBS and stored at 4° C. Images were acquired on a Thermo Scientific™ CellInsight™ CX7LED high content analysis (HCA) imaging instrument using a 10× objective. Nine fields per well were captured for quantification.\nColumbus™ software (version 2.9.1, Perkin Elmer®) was used for analysis of acquired images. A custom analysis pipeline was constructed to quantify the percentage of myofibroblasts within the well. First, nuclei were segmented using “Method B” and intensity and morphology properties were calculated using standard settings. Second, viable nuclei were identified by gating on nuclei intensity, area, and roundness of the segmented objects. Next, a region of interest was then defined around the selected viable nuclei by expanding the outer boarder by […]. STAR morphology and SER texture properties were calculated within the region of interest for the alpha-smooth muscle actin and phalloidin channels using the following parameters: profile width=4 px, scale=1 px, Kernel normalization. The calculated morphology and texture properties were used to train a linear classifier consisting of two classes, myofibroblasts and mesenchymal stem cells, by selecting >100 objects in each negative control (DMSO) and positive control (fibrogenic differentiation media) conditions. The linear classifier was then applied to the untrained test wells using a batch analysis to calculate the percentage of myofibroblasts within each image using a formula output (myofibroblasts:number of objects/viable nuclei:number of objects)*100. Results were averaged across the nine fields imaged per well.\nThe initial six NOX4 inhibitors were assessed in replicate experiments for both potency of myofibroblast reducing activity and an associated IC50 for the myofibroblast reduction phenotype was determined (Table 1)."}, "cells": {"tested_on": "cells", "details": "as described in the art; cited from earlier work"}, "[2]": {"details": "as described; cited from earlier work"}, "mesenchymal stem cells": {"tested_on": "mesenchymal stem cells", "test": "Phalloidin (F-actin) / alpha-SMA staining of treated mesenchymal stem cells", "format": "cell-based, human", "details": "for phalloidin (F-actin) staining / α-SMA immunofluorescence and phalloidin (F-actin) staining: 1 μM; for α-SMA immunofluorescence and phalloidin (F-actin) staining: FIG. 15", "protocol": "as §1, §2, §3"}, "NOX4": {"target": "T1, NOX4 (Homo sapiens, UniProt Q9NPH5)", "T1 sequence (Q9NPH5 1-578)": "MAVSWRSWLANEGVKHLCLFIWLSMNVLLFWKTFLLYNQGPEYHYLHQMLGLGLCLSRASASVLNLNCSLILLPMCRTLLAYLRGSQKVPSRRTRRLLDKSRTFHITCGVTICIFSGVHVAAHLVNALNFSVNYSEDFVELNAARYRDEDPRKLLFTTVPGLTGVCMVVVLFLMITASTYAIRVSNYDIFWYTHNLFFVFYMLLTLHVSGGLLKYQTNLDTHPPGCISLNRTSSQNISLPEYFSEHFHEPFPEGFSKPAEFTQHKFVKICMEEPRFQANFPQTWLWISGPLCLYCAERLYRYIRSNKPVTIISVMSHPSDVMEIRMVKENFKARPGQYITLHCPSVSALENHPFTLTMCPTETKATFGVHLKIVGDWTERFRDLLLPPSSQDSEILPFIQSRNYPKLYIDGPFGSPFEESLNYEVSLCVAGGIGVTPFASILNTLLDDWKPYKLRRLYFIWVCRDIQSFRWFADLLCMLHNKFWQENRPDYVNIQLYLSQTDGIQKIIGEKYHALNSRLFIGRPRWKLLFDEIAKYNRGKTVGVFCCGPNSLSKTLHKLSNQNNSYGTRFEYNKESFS", "T1 sequence (P13498 1-195 partner)": "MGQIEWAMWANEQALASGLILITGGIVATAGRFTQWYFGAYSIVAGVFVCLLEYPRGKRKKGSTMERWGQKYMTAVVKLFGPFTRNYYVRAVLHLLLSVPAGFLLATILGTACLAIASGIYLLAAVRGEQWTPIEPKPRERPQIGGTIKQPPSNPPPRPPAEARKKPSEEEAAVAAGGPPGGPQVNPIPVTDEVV", "details": "cited from earlier work"}, "[3]": {"details": "Homo sapiens, BMMSC, first experiment, read-out: IC50 Phenotype (myofibroblast reduction)"}, "[4]": {"details": "Homo sapiens, BMMSC, replicate experiment, read-out: IC50 Phenotype Replicate"}, "[5]": {"details": "reported value, read-out: Reported Potency, IC50"}},
  "note": "pIC50, pKi: −log10 of the molar value. Where two headings read alike, the source gives them in different places.",
  "data": [
    {"molecule": "c1ccc2c(c1)[I+]c1ccccc1-2", "note": "[DPI, diphenyleneiodonium chloride]", "values": [
      {"measurement": "MHC-positive myocytes (number of cells per mm^2)", "setting": "myoblast-FAP co-cultures", "result": "statistically significant increase"},
      {"measurement": "myogenic differentiation of myoblasts (MHC staining)", "setting": "myoblast-FAP co-cultures", "result": "significantly increased"}
    ]},
    {"molecule": "CCOC(=O)c1c(NC(=O)CN2CCN(C(=O)c3ccco3)CC2)sc2c1CCC2", "note": "[FTX7971]", "values": [
      {"measurement": "pIC50", "setting": "[1]; [3]", "result": 5.40},
      {"measurement": "pIC50", "setting": "[1]; [4]", "result": 5.28},
      {"measurement": "concentration of described activity in cells", "setting": "cells", "result": "about 5 μM"},
      {"measurement": "oral bioavailability", "setting": "[2]", "result": "orally bioavailable"}
    ]},
    {"molecule": "c1ccc(Cn2nnc3c(Sc4nc5ccccc5o4)ncnc32)cc1", "note": "[FTX7972]", "values": [
      {"measurement": "pIC50", "setting": "[1]; [3]", "result": 6.05},
      {"measurement": "pIC50", "setting": "[1]; [4]", "result": 6.05}
    ]},
    {"molecule": "CCCc1c(-c2ccccc2)nn(-c2ccccn2)c1O", "note": "[FTX7973]", "values": [
      {"measurement": "pIC50", "setting": "[1]; first experiment, unit nm [sic], read-out: IC50 Phenotype (myofibroblast reduction)", "result": 6.20},
      {"measurement": "pIC50", "setting": "[1]; replicate experiment, unit nm [sic], read-out: IC50 Phenotype Replicate", "result": 6.11}
    ]},
    {"molecule": "CC(CNS(=O)(=O)c1ccc(C(F)(F)F)cc1)N1CCc2ccccc21", "note": "(stereo not drawn) [FTX7974]", "values": [
      {"measurement": "pIC50", "setting": "[1]; [3]", "result": 6.45},
      {"measurement": "pIC50", "setting": "[1]; [4]", "result": 6.48},
      {"measurement": "phalloidin (F-actin) staining", "setting": "mesenchymal stem cells", "result": "significant phalloidin staining"},
      {"measurement": "α-SMA immunofluorescence and phalloidin (F-actin) staining", "setting": "mesenchymal stem cells", "result": "exhibited both α-SMA immunofluorescence and phalloidin (F-actin) staining"},
      {"measurement": "pIC50", "setting": "NOX4; [5]", "result": 5.70}
    ]},
    {"molecule": "Cc1ccccc1CCNS(=O)(=O)c1c(Cl)cc(Br)cc1Cl", "note": "[FTX7981]", "values": [
      {"measurement": "pIC50", "setting": "[1]; [3]", "result": 6.60},
      {"measurement": "pIC50", "setting": "[1]; [4]", "result": 6.47},
      {"measurement": "α-SMA immunofluorescence and phalloidin (F-actin) staining", "setting": "mesenchymal stem cells", "result": "exhibited both α-SMA immunofluorescence and phalloidin (F-actin) staining"},
      {"measurement": "pIC50", "setting": "NOX4; reported, read-out: IC50 NOX4", "result": 6.52}
    ]},
    {"molecule": "Cc1ccc(N2CCN(Cc3nc(N)nc(Nc4ccc(C)c(C)c4)n3)CC2)cc1", "note": "[FTX7983]", "values": [
      {"measurement": "pIC50", "setting": "[1]; Homo sapiens, BMMSC, first experiment, unit nm [sic], read-out: IC50 Phenotype (myofibroblast reduction)", "result": 6.48},
      {"measurement": "pIC50", "setting": "[1]; Homo sapiens, BMMSC, replicate experiment, unit nm [sic], read-out: IC50 Phenotype Replicate", "result": 6.40},
      {"measurement": "α-SMA immunofluorescence and phalloidin (F-actin) staining", "setting": "mesenchymal stem cells", "result": "exhibited both α-SMA immunofluorescence and phalloidin (F-actin) staining"}
    ]},
    {"molecule": "O=c1c2c3n(c(=O)cc2[nH]n1-c1ccccc1Cl)CCCN(Cc1ccccc1)C3", "note": "[FTX7990]", "values": [
      {"measurement": "pIC50", "setting": "[1]; [3]", "result": 6.80},
      {"measurement": "pIC50", "setting": "[1]; [4]", "result": 6.83},
      {"measurement": "reduction of myofibroblast content (concentration-response)", "setting": "[1]; treated cells in culture", "result": "dose-dependent reduction of myofibroblast content"},
      {"measurement": "pKi", "setting": "NOX4; reported value, read-out: Reported Potency, Ki", "result": 7.15},
      {"measurement": "oral bioavailability", "setting": "[2]", "result": "orally bioavailable"}
    ]},
    {"molecule": "COc1cc(NC(=O)c2ccc3cc(Cl)ccc3c2)c(C(=O)O)cc1C#N", "note": "[FTX7995]", "values": [
      {"measurement": "pIC50", "setting": "[1]; [3]", "result": 8.06},
      {"measurement": "pIC50", "setting": "[1]; [4]", "result": 7.96},
      {"measurement": "phalloidin staining", "setting": "mesenchymal stem cells; 10 nM", "result": "exhibited phalloidin staining"},
      {"measurement": "phalloidin staining", "setting": "mesenchymal stem cells; 100 nM and 1 μM", "result": "enhanced phalloidin staining"},
      {"measurement": "phalloidin (F-actin) staining", "setting": "mesenchymal stem cells", "result": "significant phalloidin staining"},
      {"measurement": "α-SMA immunofluorescence and phalloidin (F-actin) staining", "setting": "mesenchymal stem cells", "result": "exhibited both α-SMA immunofluorescence and phalloidin (F-actin) staining"},
      {"measurement": "pIC50", "setting": "NOX4; [5]", "result": 8.70}
    ]},
    {"molecule": "Cc1c2c(=O)n(-c3ccccc3Cl)[nH]c2cc(=O)n1Cc1ccccn1", "note": "[FTX8018]", "values": [
      {"measurement": "pIC50", "setting": "[1]; [3]", "result": 6.83},
      {"measurement": "oral bioavailability", "setting": "[2]", "result": "orally bioavailable"}
    ]}
  ]
}
